The record followed here is PMC6433934, “Preclinical Evaluation of Bispecific Adaptor Molecule Controlled Folate Receptor CAR-T Cell Therapy With Special Focus on Pediatric Malignancies” (Frontiers in Oncology, 2019).

The test system of one series is OV90. Nature of the series: EC17 dose response, co-culture with E2-CAR-T cells, LDH specific lysis. It is filed as cell-based. Conditions: OV90, E/T 1:1, 24 h co-culture. The source says:
To investigate EC17 CAM action in vitro, pure EGFRt-sorted CD4 and CD8 CAR-T cells were admixed in a 1:1 ratio and matching mock-transduced T cells were included per experimental design. Other than FR+/- isogenic pairs of AML and osteosarcoma cell lines, we added KB, MDA-MB-231 and OV90 to represent different histological tumor types and FR expression levels. All FR+ target cell lines were subjected to a direct ^3H-FA binding assay to quantitate the number of FR molecules bound/cell ([38]). Prior to co-culture experiments, cryopreserved CAR-T cells were allowed to recover for 2–3 days in T cell culture medium. All effector and target cells were pre-washed with FFRPMI to remove any exogenous FA that could compete against EC17. […]
For an EC17 dose response study, FR+ cancer cell lines (KB, MDA-MB-231, HOS-FRα, THP1-FRβ, OV90) were co-cultured with EGFRt-sorted E2-CAR-T cells at an effector-to-target (E/T) ratio of 1:1 in the presence of EC17 ranging from 0.1 pM to 100 μM in 10-fold increments. After 24 h of co-culture, supernatants were harvested to determine target cell killing by Promega's CytoTox 96® LDH assay kit and expressed as specific lysis (%) normalized to basal levels in the absence of EC17. […] The kinetics of target cell killing (i.e., % specific lysis) were quantified after 16 and 48 h of co-culture and normalized to basal levels in the absence of EC17 at defined E/T ratios. […]

A further series relates to THP1-FRβ. Nature of the series: AML study, intravenous xenografts, EC17 dosing regimens. It is filed as in vivo, NSG mice. The procedure:
All animal care and use were performed according to NIH guidelines and in compliance with protocols approved by the Purdue University Animal Use and Care Committee. Female 4 to 5-weeks-old NOD/SCID gamma (NSG™) mice (stock number: 005557) were purchased from The Jackson Laboratory (Bar Harbor, ME). Unless specifically indicated, all animals were maintained on a FA-deficient diet (TestDiet, St. Louis, MO) upon arrival and throughout the study. To establish subcutaneous xenografts, MDA-MB-231 and HOS-FRα were implanted in the right flank region at 2.5 × 10^6 and 1 × 10^6 cells per animal, respectively. For intravenous xenografts, THP1-FRβ cells were inoculated at 5 × 10^6 cells per animal. Subcutaneous tumors were measured 2–3 times per week with a caliper and calculated using the ellipsoidal formula (length x width^2)/2. […] All animal doses (CAR-T cells, EC17, sodium fluorescein) were given intravenously.
For AML studies, mice were intravenously infused with THP1-FRβ tumor cells 1 day prior to receiving a low dose of ~6 million E2-CAR-T cells (~23% EGFRt+). At ~3.5 days post CAR-T cell infusion, EC17 was dosed in 3 different ways including (i) SIW at 500 nmol/kg, (ii) thrice at 5/50/500 nmol/kg on Monday/Wednesday/Friday followed by a 9 day break in between cycles (TIW On/Off), and iii) as escalating doses of 5/10/100 nmol/kg in Cycle 1, 5/30/300 nmol/kg in Cycle 2, and 5/50/500 nmol/kg in Cycle 3, all on Monday/Thursday/Monday with a 6 day break in between cycles (M/Th/M, On/Off). On day 31, satellite animals were harvested for quantification of CAR-positive T cells identified in the mouse blood as human CD3ε+ EGFRt+ events and calculated as absolute numbers per 100 μL of whole blood. Upon euthanasia or at the end of study on day 38, total tumor load in THP1-FRβ tumor-bearing mice was assessed by measuring GFP+ tumor cells in the blood by flow cytometry and collecting liver weight (with metastatic lesions) and total weight of nonliver macrometastases found in the body cavities. Tumor fragments of liver metastases were enzymatically digested into single-cell suspensions and viable cell populations were analyzed for the status of CAR-T cell exhaustion using anti-human PD1, LAG3, and TIM3 (clones EH12.1, T47-530, and 7D3, respectively).
Depending on the CAR-T cell dose and how EC17 is administered, tumor-bearing mice receiving FITC-specific CAR-T cells can experience severe CRS and varying degrees of body weight loss ([27], [33], [34]). Therefore, we developed a CRS grading system (0–5 scale) to empirically assess CRS toxicity from animals' gross morphology and social behavior to allow for better timing of CRS rescue. While grades 0 and 5 indicated normal (no CRS) or death (due to severe CRS), respectively, grades 1, 2, and 3–4 were considered mild, light-to-moderate, and severe CRS. In addition, all EC17 doses were intentionally given toward the end of any given day to allow potential CRS symptoms to develop overnight. On the days immediately following each EC17 dose, animals were scored and rescue agents such as sodium fluorescein, folic acid and leucovorin were used to mitigate CRS toxicity ([33]). In this particular instance, a batch of E2-CAR-T cells with a high EGFRt+ CD4/CD8 ratio (~93:7) was given to HOS-FRα tumor-bearing mice at a mixture of ~2.5 million CD8 and ~33 million CD4 on day 0. When EC17 was dosed, respectively, at 500, 100, and 500 nmol/kg on days 3, 10, and 12, low CRS (grades 1–2) was noted on days 4 and 11 but high CRS (grade 3) was noted on day 13. To mitigate the severe CRS toxicity, sodium fluorescein was intravenously administrated at ~96 mg/kg in the morning of day 13 and mouse plasma samples were collected 6 h later for analysis of CRS-associated cytokines.

As usually defined, the EC50 is the midpoint of the concentration-response curve. A lower EC50 goes with an effect from little substance. On to `Nc1nc2ncc(CNc3ccc(C(=O)NC(CCC(=O)NCCNC(=S)Nc4ccc(-c5c6ccc(=O)cc-6oc6cc(O)ccc56)c(C(=O)O)c4)C(=O)O)cc3)nc2c(=O)[nH]1` (stereo not drawn) [EC17, FA-(γ)-ethylenediamine-FITC], for which, in the series on OV90 (Homo sapiens, OV-90, curve fitted up to 100 nM), the half-maximal effective concentration (EC50) stood at 0.418 nM. In the series on OV90, this compound had a Max. lysis of 15%. Also, the non-liver macrometastases result in the series with THP1-FRβ (EC17 M/Th/M dose escalation at a slow pace per cycle) is “failed to control”; in the series on THP1-FRβ (EC17 SIW and TIW at 10-fold dose escalation (on/off)), “successfully controlled”. Also, the CRS grade in the series on THP1-FRβ (EC17 M/Th/M dose escalation, Cycle 2 after 300 nmol/kg, ~6 million E2-CAR-T cells) is 0–1; in the series on THP1-FRβ (EC17 SIW 500 nmol/kg, Cycles 2 and 3, ~6 million E2-CAR-T cells), 1–2; with THP1-FRβ (EC17 TIW 5/50/500 nmol/kg on/off, ~6 million E2-CAR-T cells) it was 0–1. Further, in the series on THP1-FRβ (THP1-FRβ xenografts, EC17 plus E2-CAR-T cells), the cures result is “no cures”. The “circulating THP1-FRβ tumor cells in the blood” value with THP1-FRβ (any of the 3 EC17 regimens vs controls, ~6 million E2-CAR-T cells) is reported as “effectively reduced”.
